In ChEMBL document CHEMBL3751776, “Expanding the structural diversity of diarylureas as multi-target tyrosine kinase inhibitors” (Bioorg Med Chem, 2016) one finds IC50 data, which are given here for 27 compounds.

Structures are written as SMILES.

Assay [1] concerns the target Epidermal growth factor receptor (Homo sapiens, UniProt P00533). In words: Inhibition of EGFR (unknown origin) incubated for 1 hr assessed as luminescence changes using ATP by ADP-Glo Kinase assay.
Assay [2] has as its target Vascular endothelial growth factor receptor 2 (Homo sapiens, UniProt P35968). In words: Inhibition of KDR (unknown origin) incubated for 1 hr assessed as luminescence changes using ATP by ADP-Glo Kinase assay.
Assay [3] is described as follows: Antiproliferative activity against human SMMC7721 cells assessed as growth inhibition after 48 hrs by MTT assay. Format: functional, cell-based. The conditions noted are these: SMMC-7721, 48 h. For orientation: Tetrazolium dyes change colour on reduction, which living cells bring about.
The target of assay [4] is Fibroblast growth factor receptor 1 (Homo sapiens, UniProt P11362). As to the kind of experiment: Inhibition of FGFR1 (unknown origin) incubated for 1 hr assessed as luminescence changes using ATP by ADP-Glo Kinase assay. A general note: ADP-Glo first removes unused ATP, then detects ADP through luciferase.
Chain of Fibroblast growth factor receptor 1 (P11362 whole entry): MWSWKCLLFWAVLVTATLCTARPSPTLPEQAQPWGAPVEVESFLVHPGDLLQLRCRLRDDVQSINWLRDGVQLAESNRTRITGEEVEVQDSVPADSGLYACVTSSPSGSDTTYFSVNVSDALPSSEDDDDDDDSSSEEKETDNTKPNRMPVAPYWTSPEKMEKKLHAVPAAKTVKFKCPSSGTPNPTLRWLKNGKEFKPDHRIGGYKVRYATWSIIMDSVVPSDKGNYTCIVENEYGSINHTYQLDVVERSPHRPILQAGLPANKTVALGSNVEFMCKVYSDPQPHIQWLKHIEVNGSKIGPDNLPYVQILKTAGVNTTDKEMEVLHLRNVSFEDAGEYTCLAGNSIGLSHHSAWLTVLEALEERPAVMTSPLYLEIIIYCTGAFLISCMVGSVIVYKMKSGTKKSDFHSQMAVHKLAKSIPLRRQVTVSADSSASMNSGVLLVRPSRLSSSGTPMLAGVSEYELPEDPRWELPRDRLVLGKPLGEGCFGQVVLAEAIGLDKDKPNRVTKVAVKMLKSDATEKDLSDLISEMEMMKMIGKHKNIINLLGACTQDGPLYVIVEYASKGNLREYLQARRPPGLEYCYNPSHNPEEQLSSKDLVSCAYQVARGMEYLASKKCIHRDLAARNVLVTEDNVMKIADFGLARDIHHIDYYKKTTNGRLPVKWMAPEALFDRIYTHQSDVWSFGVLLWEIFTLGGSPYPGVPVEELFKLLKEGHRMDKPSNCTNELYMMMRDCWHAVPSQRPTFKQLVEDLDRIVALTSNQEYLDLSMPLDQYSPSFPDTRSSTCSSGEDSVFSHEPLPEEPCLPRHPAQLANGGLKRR
The test system of assay [5] is A549. In words: Antiproliferative activity against human A549 cells assessed as growth inhibition after 48 hrs by MTT assay. Format: functional, cell-based. The note with it: A549, 48 h.

Chain of Vascular endothelial growth factor receptor 2 (P35968 whole entry): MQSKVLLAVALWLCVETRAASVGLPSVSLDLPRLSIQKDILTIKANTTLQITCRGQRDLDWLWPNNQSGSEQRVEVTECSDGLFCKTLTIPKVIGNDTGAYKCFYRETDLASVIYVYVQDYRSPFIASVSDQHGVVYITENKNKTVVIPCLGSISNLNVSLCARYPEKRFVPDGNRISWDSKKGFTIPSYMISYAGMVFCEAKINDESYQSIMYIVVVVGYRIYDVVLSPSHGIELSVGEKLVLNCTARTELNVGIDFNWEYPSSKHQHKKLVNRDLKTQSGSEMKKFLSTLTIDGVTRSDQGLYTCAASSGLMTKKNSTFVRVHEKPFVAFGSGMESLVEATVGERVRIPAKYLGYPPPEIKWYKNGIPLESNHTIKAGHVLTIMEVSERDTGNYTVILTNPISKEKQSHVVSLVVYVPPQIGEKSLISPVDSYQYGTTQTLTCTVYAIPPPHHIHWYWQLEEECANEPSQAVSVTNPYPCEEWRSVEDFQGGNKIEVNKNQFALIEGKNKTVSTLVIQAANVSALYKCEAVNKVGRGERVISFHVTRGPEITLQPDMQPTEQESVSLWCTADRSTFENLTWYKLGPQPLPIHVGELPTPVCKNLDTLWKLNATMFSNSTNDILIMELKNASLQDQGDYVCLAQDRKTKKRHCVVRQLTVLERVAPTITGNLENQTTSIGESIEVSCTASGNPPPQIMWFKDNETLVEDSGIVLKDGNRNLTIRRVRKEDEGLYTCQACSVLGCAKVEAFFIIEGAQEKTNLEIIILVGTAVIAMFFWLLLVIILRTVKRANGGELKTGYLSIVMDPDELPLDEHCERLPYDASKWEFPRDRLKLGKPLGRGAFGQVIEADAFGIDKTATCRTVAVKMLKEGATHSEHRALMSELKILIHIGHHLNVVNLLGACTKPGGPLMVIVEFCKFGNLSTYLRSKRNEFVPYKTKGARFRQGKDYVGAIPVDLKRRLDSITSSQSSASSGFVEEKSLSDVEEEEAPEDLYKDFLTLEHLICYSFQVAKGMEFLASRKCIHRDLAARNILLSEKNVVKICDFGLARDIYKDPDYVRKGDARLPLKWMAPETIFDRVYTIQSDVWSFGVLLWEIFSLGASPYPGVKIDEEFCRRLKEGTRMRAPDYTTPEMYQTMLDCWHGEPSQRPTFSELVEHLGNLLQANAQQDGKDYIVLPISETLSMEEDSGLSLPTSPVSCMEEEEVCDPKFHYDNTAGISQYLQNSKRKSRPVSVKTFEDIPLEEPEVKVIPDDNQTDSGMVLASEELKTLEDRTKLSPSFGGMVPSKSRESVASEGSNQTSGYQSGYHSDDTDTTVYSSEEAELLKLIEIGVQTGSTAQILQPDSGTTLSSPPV
Chain of Epidermal growth factor receptor (P00533 whole entry): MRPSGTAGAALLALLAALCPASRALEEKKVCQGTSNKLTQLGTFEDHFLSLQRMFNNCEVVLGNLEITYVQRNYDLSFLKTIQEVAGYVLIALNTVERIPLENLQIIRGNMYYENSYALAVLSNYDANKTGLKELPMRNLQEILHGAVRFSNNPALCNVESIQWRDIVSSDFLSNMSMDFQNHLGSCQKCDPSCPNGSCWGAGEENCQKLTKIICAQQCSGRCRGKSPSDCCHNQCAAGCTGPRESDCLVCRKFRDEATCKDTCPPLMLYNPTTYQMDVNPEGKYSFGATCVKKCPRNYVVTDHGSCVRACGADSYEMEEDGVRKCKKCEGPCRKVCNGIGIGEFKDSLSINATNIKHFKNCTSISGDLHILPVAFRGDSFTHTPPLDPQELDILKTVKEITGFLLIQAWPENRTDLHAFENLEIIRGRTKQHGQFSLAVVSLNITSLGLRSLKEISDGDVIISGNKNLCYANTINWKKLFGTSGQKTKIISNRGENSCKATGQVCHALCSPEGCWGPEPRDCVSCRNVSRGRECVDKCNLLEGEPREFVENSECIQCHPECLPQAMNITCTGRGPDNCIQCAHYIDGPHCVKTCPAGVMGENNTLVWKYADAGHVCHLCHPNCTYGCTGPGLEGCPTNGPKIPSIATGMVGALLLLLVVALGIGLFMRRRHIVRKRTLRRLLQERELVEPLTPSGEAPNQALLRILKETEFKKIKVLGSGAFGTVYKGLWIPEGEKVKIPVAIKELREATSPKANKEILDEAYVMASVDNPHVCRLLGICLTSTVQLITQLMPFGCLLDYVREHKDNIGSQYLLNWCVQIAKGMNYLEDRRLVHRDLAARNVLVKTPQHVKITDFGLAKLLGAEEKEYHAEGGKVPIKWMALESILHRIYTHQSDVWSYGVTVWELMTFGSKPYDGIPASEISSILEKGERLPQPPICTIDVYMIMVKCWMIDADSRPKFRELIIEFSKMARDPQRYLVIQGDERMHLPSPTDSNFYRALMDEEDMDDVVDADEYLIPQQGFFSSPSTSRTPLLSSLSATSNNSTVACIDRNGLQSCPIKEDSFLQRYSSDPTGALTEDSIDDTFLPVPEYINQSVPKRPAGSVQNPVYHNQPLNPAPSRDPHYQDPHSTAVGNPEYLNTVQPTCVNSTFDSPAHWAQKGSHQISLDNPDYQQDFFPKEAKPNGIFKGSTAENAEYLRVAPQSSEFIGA

`COc1ccc(-c2cc(NC(=O)Nc3nccs3)cc(C(F)(F)F)c2)cn1`: the IC50 – broadly, the point on the concentration scale where inhibition reaches its midpoint – in assay [1] is 477 nM; in assay [2] it was more than 500 nM; in assay [3] it was 36200 nM; in assay [4] it was more than 500 nM.

Turning to `O=C(Nc1ccncc1)Nc1cc(-c2cncnc2)cc(C(F)(F)F)c1`, the half-inhibitory concentration (IC50) in assay [1] was 14.8 nM; in assay [2] it was 21.6 nM; in assay [3], 3730 nM; in assay [4], 28.2 nM; in assay [5], 2420 nM.

On to `COc1cc(NC(=O)Nc2ccccn2)cc(-c2cccnc2)c1OC`, for which the IC50 is 48.8 nM in assay [1]; more than 500 nM in assay [2]; 22400 nM in assay [3]; 69.3 nM in assay [4]; 13500 nM in assay [5].

As for `COc1cc(NC(=O)Nc2nccs2)cc(-c2cn(C)cn2)c1OC`, the IC50 is 362 nM in assay [1], 420 nM in assay [2] and more than 500 nM in assay [4].

With `O=C(Nc1nccs1)Nc1cc(-c2cncnc2)ccc1OC(F)(F)F`, the 50% inhibitory concentration (IC50) in assay [1] worked out at 71.7 nM; in assay [2] it was 68.6 nM; in assay [3], 9350 nM; in assay [4], 154 nM; in assay [5], 17600 nM.

Take `O=C(Nc1ccncc1)Nc1cc(-c2cncnc2)ccc1OC(F)(F)F`: the IC50 is 18 nM in assay [1]; 22.2 nM in assay [2]; 3990 nM in assay [3]; 32.6 nM in assay [4]; 3750 nM in assay [5].

In the case of `O=C(Nc1ccncc1)Nc1cc(-c2cccnc2)cc(C(F)(F)F)c1`, the IC50 was 189 nM in assay [1], 93 nM in assay [2], 138 nM in assay [4] and more than 300000 nM in assay [5].

As to `Cn1cnc(-c2ccc(OC(F)(F)F)c(NC(=O)Nc3ccncc3)c2)c1`, the 50% inhibitory concentration (IC50) in assay [1] is 94.8 nM; in assay [2], 355 nM; in assay [3] it was more than 300000 nM; in assay [4] it was 371 nM; in assay [5], 79300 nM.

With `COc1ccc(-c2ccc(OC(F)(F)F)c(NC(=O)Nc3ccccn3)c2)cn1`, the half-inhibitory concentration (IC50) in assay [1] is more than 500 nM; in assay [2], more than 500 nM; in assay [3] it was 90400 nM; in assay [4], more than 500 nM; in assay [5], 177000 nM.

Consider `Cn1cnc(-c2cc(NC(=O)Nc3nccs3)cc(C(F)(F)F)c2)c1`, for which the IC50 in assay [1] was 311 nM; in assay [2], 285 nM; in assay [4], more than 500 nM; in assay [5], 163000 nM.

Consider `O=C(Nc1cc(-c2cccnc2)cc(C(F)(F)F)c1)Nc1nccs1`, for which the IC50 in assay [1] stood at 78.2 nM; in assay [2] it was 57.4 nM; in assay [3] it was 68200 nM; in assay [4], 99.2 nM; in assay [5] it was 92100 nM.

Turning to `COc1ccc(-c2ccc(OC(F)(F)F)c(NC(=O)Nc3nccs3)c2)cn1`, the 50% inhibitory concentration (IC50) in assay [1] was 495 nM; in assay [2], 390 nM; in assay [3], 44100 nM; in assay [4], more than 500 nM; in assay [5], 35000 nM.

Regarding `O=C(Nc1ccccn1)Nc1cc(-c2cccnc2)ccc1OC(F)(F)F`, the concentration for half-maximal inhibition (IC50) in assay [2] is 86.7 nM; in assay [3], 35600 nM; in assay [4], 130 nM; in assay [5] it was 19000 nM.

With `COc1ccc(-c2cc(NC(=O)Nc3ccncc3)cc(OC)c2OC)cn1`, the figures for the half-maximal inhibitory concentration (IC50) in assay [1], in assay [2] and in assay [4] were 455 nM, more than 500 nM and more than 500 nM, respectively.

As to `COc1cc(NC(=O)Nc2ccccn2)cc(-c2c[nH]cn2)c1OC`, the IC50 stood at 24.8 nM in assay [1]; 33.2 nM in assay [2]; 21200 nM in assay [3]; 56.5 nM in assay [4]; 14100 nM in assay [5].

As to `COc1ccc(-c2ccc(OC(F)(F)F)c(NC(=O)Nc3ccncc3)c2)cn1`, the concentration for half-maximal inhibition (IC50) in assay [1] was 103 nM; in assay [2], more than 500 nM; in assay [4], 99.8 nM; in assay [5], more than 300000 nM.

With `O=C(Nc1nccs1)Nc1cc(-c2cccnc2)ccc1OC(F)(F)F`, the IC50 in assay [1] was 121 nM; in assay [2], 107 nM; in assay [3], 12500 nM; in assay [4] it was 96.1 nM.

Take `COc1cc(NC(=O)Nc2ccncc2)cc(-c2cccnc2)c1OC`: the 50% inhibitory concentration (IC50) in assay [1] was determined as 131 nM; in assay [2] it was 213 nM; in assay [3], 73600 nM; in assay [4], 272 nM.

On to `O=C(Nc1ccncc1)Nc1cc(-c2cccnc2)ccc1OC(F)(F)F`, for which the concentration for half-maximal inhibition (IC50) in assay [1] was determined as 97.2 nM; in assay [2], 128 nM; in assay [3] it was 42800 nM; in assay [4] it was 104 nM; in assay [5], 39800 nM.

In the case of `COc1ccc(-c2cc(NC(=O)Nc3ccncc3)cc(C(F)(F)F)c2)cn1`, the IC50 in assay [1] was more than 500 nM; in assay [2], 364 nM; in assay [3] it was more than 300000 nM; in assay [4], more than 500 nM; in assay [5], 276000 nM.

Turning to `O=C(Nc1ccccn1)Nc1cc(-c2cncnc2)ccc1OC(F)(F)F`, the half-inhibitory concentration (IC50) was 26.6 nM in assay [1]; 52.2 nM in assay [2]; 21600 nM in assay [3]; 81.3 nM in assay [4]; 15200 nM in assay [5].

`Cn1cnc(-c2cc(NC(=O)Nc3ccncc3)cc(C(F)(F)F)c2)c1`: the half-inhibitory concentration (IC50) in assay [1] worked out at 166 nM; in assay [2] it was 223 nM; in assay [3], 235000 nM; in assay [4], 261 nM; in assay [5], 39400 nM.

With `O=C(Nc1cc(-c2cncnc2)cc(C(F)(F)F)c1)Nc1nccs1`, the IC50 in assay [1] is 71.8 nM; in assay [2], 86.7 nM; in assay [3], 29700 nM; in assay [4], more than 500 nM; in assay [5], 18300 nM.

`COc1cc(NC(=O)Nc2nccs2)cc(-c2cccnc2)c1OC`: the half-inhibitory concentration (IC50) was found to be 317 nM in assay [1], 291 nM in assay [2], 334 nM in assay [4] and 106000 nM in assay [5].

Consider `COc1cc(NC(=O)Nc2ccncc2)cc(-c2cncnc2)c1OC`, for which the IC50 in assay [1] is 290 nM; in assay [2] it was 492 nM; in assay [3] it was 12900 nM; in assay [4], more than 500 nM; in assay [5], 17300 nM.

With `COc1ccc(-c2cc(NC(=O)Nc3ccccn3)cc(OC)c2OC)cn1`, the 50% inhibitory concentration (IC50) is 66.6 nM in assay [1]; 79.4 nM in assay [2]; 32900 nM in assay [3]; more than 500 nM in assay [4]; 24700 nM in assay [5].

For `CNC(=O)c1cc(Oc2ccc(NC(=O)Nc3ccc(Cl)c(C(F)(F)F)c3)cc2)ccn1` [SORAFENIB], the IC50 in assay [3] worked out at 1580 nM; in assay [5], 2020 nM.
